Patent US20240415819A1, “MACROCYCLIC COMPOUNDS AS PROTEASOME SUBUNIT BETA TYPE-5 INHIBITORS” (Lead Discovery Center GmbH, priority 2021, published 2024)

How the values were obtained:
[1] = test system: RPMI 8226 (B lymphocyte cell line, multiple myeloma); test: 48 hr CTG viability assay, RPMI 8226; assay type: cell-based; settings: Homo sapiens, RPMI-8226; 48 hr CTG; read-out: RPMI-8226 IC50
Outline: (§1)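 Growth inhibition by compound over 48 h; IC50 (nM) derived from duplicate CellTiter-Glo luminescence readings across 0.0015–10 uM.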

[2] = test system: Hs 746T (human gastric carcinoma cell line); test: 48 hr CTG viability assay, Hs 746T; assay type: cell-based; settings: Hs746T, 48 hr CTG, read-out: Hs 746T IC50
Outline: as §1

[3] = test system: MDA-MB-468 (breast carcinoma); test: 48 hr CTG viability assay, MDA-MB-468; assay type: cell-based; settings: Homo sapiens
Experimental: A viability assay was conducted for 48 hours to evaluate the inhibition of cancer cell growth by proteasome inhibitors. Briefly, the candidate cell line was plated with a 96-well plate following density of cells, respectively. 6×10^3 Cells/well for A2780 (human ovarian cancer cell line) and MDA-MB-468 (breast carcinoma), 8×10^3 Cells/well for Hs746T (human gastric carcinoma cell line), 1.1×10^4 Cells/well for MM1 S and RPMI 8226 (multiple myeloma). After 24 hours, the cells were treated with various concentrations of the compound (ranging from 0.0015 uM to 10 uM). […] After 48 hours of incubation at 37° C., 5% CO2 incubator, cells were analyzed for viability using the CellTiter-Glo Luminescent Cell Viability assay (Promega, Cat #G7570). All viability assays were performed in duplicate and Luminescence was read using an Envision (Perkin Elmer, USA). Data were analyzed using XLfit software. […] (human gastric carcinoma cell line), MM1 S (B lymphoblast cell line), and RPMI 8226 (B lymphocyte cell line, multiple myeloma). Inhibition is indicated as IC50 [nM] (“-”=not measured).

[4] = target: T1, β5 subunit of the human immunoproteasome (IPS) (Homo sapiens, UniProt P28062); test: β5 inhibition assay, human immunoproteasome (Suc-LLVY-AMC); assay type: biochemical; settings: IC50 class, Suc-LLVY-AMC substrate
T1 construct: purchased Boston Biochem E-370
Outline: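 β5 activity is read as liberated AMC fluorescence (355/460 nm) after 4 h dark reaction at RT with 22.6 μM Suc-LLVY-AMC, stopped by 1 μM bortezomib. Beforehand, 1 nM human IPS and compound sat 10 min at RT in HEPES pH 7.5 buffer containing NaCl, 0.02% SDS and DTT.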

[5] = test system: A549 (human lung carcinoma cell line); test: Glo assay of A549 cells (Table 3; ProteasomeGlo plating scheme); assay type: cell-based; settings: Homo sapiens; A549 cells; read-out: PGLo A549
Outline: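 Compound treatment lasts 105 minutes at 37° C. under 5% CO2. Suc-LLVY-Glo substrate premixed with detection reagent (60 min at room temperature) is then added directly to the cells, and luminescence after 10-15 min in the dark gives the IC50 in nM.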

[6] = test system: MM1 S (B lymphoblast cell line); test: 48 hr CTG viability assay, MM1S; assay type: cell-based; settings: Homo sapiens, 48 hr CTG, read-out: MM1S IC50
Outline: as §1

[7] = target: T2, β5 subunit of the human constitutive proteasome (CPS) (Homo sapiens, UniProt P28074); test: β5 inhibition assay, human constitutive proteasome (Suc-LLVY-AMC); assay type: biochemical; settings: IC50 class, Suc-LLVY-AMC substrate
T2 construct: purchased Boston Biochem E-360
Experimental: The enzymatic activity of the β5 subunit of the human constitutive proteasome (CPS) is analyzed. In another assay, which differs from the assay of the human constitutive proteasome only in using the human immunoproteasome (IPS) the enzymatic activity of the β5 subunit of the human immunoproteasome (IPS) is analyzed. […] Inhibition is indicated as IC50 [nM] (“-”=not measured).

[8] = test system: HT-29 cells; test: CellTiter-Glo luminescent cell viability assay with HT-29 cells (72h incubation); assay type: cell-based, human; settings: Homo sapiens, HT-29, HT29 cells, read-out: CTG HT29
Outline: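 Viability read as CellTiter-Glo luminescence after 72 h compound exposure, with 10 μM staurosporine and DMSO as control wells. Seeding 400 cells per well, compound added 24 h post-plating; IC50 from curve fitting.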

[9] = test system: Karpas cells; test: Glo assay of Karpas cells (Table 3; ProteasomeGlo plating scheme); assay type: cell-based; settings: read-out: Pglo Karpas
Source text: Inhibition is indicated as IC50 [nM] (“-”=not measured). […] • Chymotrypsin-Like Cell-Based Proteasome-GloTM Assay (Promega; […]) • Cell culture 384-well plates (Greiner BioOne; 781080) • Dispensing cassette, MultiDrop Standard tube dispensing cassette (Thermo Scientific; 24072670) • DPBS (Pan BioTech; P04-36500) • Cell culture 384-well plates (Greiner BioOne; 781080) • CPD source plate: diamond-shape plate (Labcyte; LP-0200) • Intermediate plate (Labcyte; P-05525) [table] • a. Remove the plates with cells from the incubator. • b. Take all the plates including the compound plate, intermediate plate and Staurosporine plate to the ECHO. • c. Click on “Open” in the ECHO software and select the protocol “QLI5_25ul_30 uM-Grenier”. • d. Follow the on-screen prompts and instructions once you click “Start” to insert the compound plate, intermediate plate and destination plates. • e. Change the final number of destination plates on the program. • f. Follow the on-screen prompts and instructions once you click “Start” to load the Staurosporine and destination plates. • g. Once all the compounds, DMSO and Staurosporine have been transferred, place the destination plates in a wet tissue box. • h. Place the destination plates back into the incubator and incubate at 37° C., 5% CO2 for 105 minutes. • i. Re-seal all the compound+Stauro diamond and intermediate plates and store in the dark. Chymotrypsin like ProteasomeGlo Assay • 1. Thaw the components of the ProteasomeGlo assay at room temperature including the ProteasomeGlo Buffer, the lyophilized Luciferin Detection Reagent and the Suc-LLVY-Glo Substrate. • 2. Reconstitute the Luciferin Detection Reagent in the amber coloured bottle by adding 50 ml of the ProteasomeGlo Buffer. • 3. Vortex the Suc-LLVY-Glo Substrate briefly to reconstitute the Substrate well. • 4. Spin down the Substrate and add 250 μl of the Substrate to the reconstituted Luciferin Detection Reagent from step 2. • 5. Briefly vortex the amber bottle with the mix to prepare a homogenous solution. • 6. Place the mix prepared in step 5 to sit at room temperature for 60 minutes. • 7. After 60 minutes, pipette 25 μl of the mix from step 5 into all wells with the cells. • 8. Shake the plates for 2-5 minutes to ensure the complete mixing of the ProteasomeGlo reagent with the cells. • 9. Leave the plates in the dark for 10-15 minutes. • 10. Measure the luminescence read-out using the Viktor and the protocol “Luminescence_384Well_0.2 sec”. (Note: The Protoeasome-GloTM Reagent (combined Proteasome-GloTM Substrate, Proteasome-GloTM Buffer and Luciferin Detection Reagent) can be stored at 4° C. or -20° C. for 1 month with minimal loss of activity.)

[10] = test system: B-cells isolated from PBMC's; test: Chymotrypsin-like ProteasomeGlo assay in B-cells isolated from PBMCs; assay type: cell-based, human; settings: Homo sapiens; B-cells isolated from PBMC's; read-out: Pglo B-Cell
Source text: PBMC's will be isolated from human blood followed by B-cell isolation from the PBMC's using the Miltenyi Isolation Kit. • 2. This experiment will use the Chymotrypsin-like ProteasomeGlo read-out to generate IC50's following compound treatment. • 3. Dilute all compounds 1:100 for the assay. • 4. […] Repeat the DMSO transfer with lane 12. • 5. Lane 12 should not be seeded with any cells. Only medium! • 6. For all steps, make sure the samples and reagents remain cool! • 7. While dealing with the buffy coats, be careful to not let any exposed skin to be in direct contact with the blood. […] PBMC isolation followed by B-cell isolation using the Miltenyi Kit • Day 2: B-cell plating, ECHO transfer and ProteasomeGlo assay For the initial steps and to make processing the buffy coats easier, separately process the buffy coats. • a. Cut the tube attached to the buffy coats carefully using a clean, sterile and fresh scalpel. • b. Transfer the blood into 2 individual 50 ml falcons. • c. Add an equal volume of DPBS to the blood in the falcons. • d. Add 20 ml of lymphocyte separating medium to two 50 ml falcons. • e. Carefully pour 15-20 ml of the blood+DPBS mix from step c. onto the lymphocyte separating medium from step d. • f. Centrifuge the falcons with the lymphocyte separating medium+blood mix at 800×g for 15 minutes using a swing-out rotor. • g. Following centrifugation, carefully remove the falcons from the centrifuge. • h. The following layers will be observed: • i. Aspirate the plasma layer off carefully without disturbing the different layers. • j. Remove the cell pellet using a pipette into two fresh 50 ml falcons. • k. Fill the falcons with the cells up to 50 ml with DPBS. • l. Centrifuge the falcons at 250×g for 10 minutes using a swing-out rotor (Brake-off). • m. Aspirate the complete DPBS off the cells without disturbing the cell pellet at the bottom of the falcon. • n. Re-suspend the cell pellet in 10 ml of 1×RBC lysis buffer. • o. Incubate the falcons at room temperature in the dark for 10 minutes. • p. After RBC lysis, centrifuge the tubes at 250×g for 10 minutes using a swing-out rotor (brake-off). • (*Note: If the cell pellet is still red or light red, repeat steps n. to p.!) • q. Re-suspend the cell pellet in DPBS up to 50 ml in the falcon. • r. Centrifuge the falcons at 250×g for 10 minutes using a swing-out rotor (Brake-off). • s. Aspirate the DPBS off the cells without disturbing the cell pellet at the bottom of the falcon. • t. Repeat the wash step as described in steps q. to s. 2× times more (total number of washes is 3×). • u. Aspirate the DPBS completely off the cell pellet after the last wash without disturbing the cell pellet. • v. Re-suspend the cell pellet in 20 ml of PBMC cell medium. • w. […] Re-suspend the pellet in volume of the B-cell isolation buffer calculated as follows: • k. Mix well using a 1 ml pipette and incubate the mix on ice for 20 mins. • l. In the meantime, equilibrate one LS Column as follows: • 1. Insert one LS Column into one slot of the separator as depicted in the pictures above. • 2. Place a 50 ml falcon at the bottom of the LS column to collect the wash flow-through. • 3. Add 3 ml of the B-cell isolation buffer into the column. • 4. Allow the buffer to flow-through making sure that the entire volume passes the column and that the column reservoir is empty before the addition of the cells. • 5. Remove the falcon with the flow-through and discard. • m. Place a fresh 50 ml falcon under the LS Column to collect the untouched B-cells isolated from the PBMCs. • n. Apply the entire volume of the cell+antibody+microbeads mix to the LS Column. • o. Collect the flow-through from each application of the mix into the same 50 ml falcon under the LS Column. • p. Once the complete volume of the cell+antibody+microbead mix has been passed through, proceed to washing of the column. • q. Add 3 ml of the B-cell isolation buffer to the LS Column and allow the buffer to flow-through. […]

IC50 [1] [nM] | IC50 [2] [nM] | IC50 [3] [nM] | IC50 [4] [nM] | IC50 [5] [nM] | IC50 [6] [nM] | IC50 [7] [nM] | IC50 [8] [nM] | IC50 [9] [nM] | SMILES | IC50 [10] [nM]
< 100 | < 100 | < 100 | < 100 | < 100 | < 100 | < 100 |  |  | Cc1ccc2cc1CNC(=O)[C@H](CCc1cccnc1)NC(=O)[C@@H](NC(=O)C(C)(C)CO)CC(=O)N1CCCC(CCO2)C1 (stereo partly drawn) [Compound 683, 3-hydroxy-2,2-dimethyl-N-((9S,12S)-5^4-methyl-8,11,14-trioxo-9-(2-(pyridin-3-yl)ethyl)-4-oxa-7,10-diaza-1(3,1)-piperidina-5(1,3)-benzenacyclotetradecaphane-12-yl)propanamide] | 
 |  |  | < 100 | 1000 to 5000 |  | < 100 | 1000 to 5000 | 500 to 1000 | Cc1ccc2cc1CNC(=O)[C@H](CCc1ccccc1)NC(=O)CCCC(=O)N1CCCC(CCO2)C1 (stereo partly drawn) [Compound 19, (9S)-5^4-methyl-9-phenethyl-4-oxa-7,10-diaza-1(3,1)-piperidina-5(1,3)-benzenacyclopentadecaphane-8,11,15-trione] | 
< 100 | < 100 | < 100 |  |  | < 100 |  |  |  | Cc1ccc2cc1CNC(=O)[C@H](CCc1ccccc1)NC(=O)[C@@H](NC(=O)Cc1ccc(NC(=O)[C@@H](N)CCC(=O)O)cc1C)CC(=O)N1CCCC(CCO2)C1 (some centres unmarked) [Compound 574] | 

The next lines start with the molecule.

SMILES | IC50 [1] [nM] | IC50 [2] [nM] | IC50 [3] [nM] | IC50 [4] [nM] | IC50 [5] [nM] | IC50 [6] [nM] | IC50 [7] [nM] | IC50 [8] [nM] | IC50 [9] [nM] | IC50 [10] [nM]
Cc1ccc2cc1CNC(=O)[C@H](CCc1ccccc1)NC(=O)[C@@H](NC(=O)C1(CO)CCNCC1)CC(=O)N1CCCC(CCO2)C1 (stereo partly drawn) [Compound 730, 4-(hydroxymethyl)-N-((9S,12S)-5^4-methyl-8,11,14-trioxo-9-phenethyl-4-oxa-7,10-diaza-1(3,1)-piperidina-5(1,3)-benzenacyclotetradecaphane-12-yl)piperidine-4-carboxamide] | 500 to 1000 | 500 to 1000 | 1000 to 5000 | < 100 | 100 to 500 | 100 to 500 | < 100 |  |  | 
Cc1ccc2cc1CNC(=O)[C@H](CCc1ccccc1)NC(=O)[C@@H](NC(=O)N1CCc3cc(N)ccc31)CC(=O)N1CCCC(CCO2)C1 (stereo partly drawn) [Compound 704, 5-amino-N-((9S,12S)-5^4-methyl-8,11,14-trioxo-9-phenethyl-4-oxa-7,10-diaza-1(3,1)-piperidina-5(1,3)-benzenacyclotetradecaphane-12-yl)indoline-1-carboxamide] | < 100 | < 100 | < 100 | < 100 | < 100 | < 100 | < 100 |  |  | 
Cc1cc(C)c2cc1CNC(=O)[C@H](CCc1ccccc1)NC(=O)CCC(=O)N1CCCC(CCO2)C1 (stereo partly drawn) [Compound 59, (9R)-5^4,5^6-dimethyl-9-phenethyl-4-oxa-7,10-diaza-1(3,1)-piperidina-5(1,3)-benzenacyclotetradecaphane-8,11,14-trione] |  |  |  |  |  |  |  | 1000 to 5000 |  | 100 to 500
